The source of these data is the SangsterLogP compilation.

Molecules are shown by their SMILES.

Compound `N#Cc1cc(-c2ccncc2)cnc1Cl` had a logP of 1.74.
In turn, `CC(O)CNc1ncc(-c2ccncc2)cc1C#N` (stereo not given) gave a logP of 0.79.
The value for `N#Cc1cc(-c2ccncc2)cnc1N(CCO)CCO` was 1.14.
Compound `COCCCNc1ncc(-c2ccncc2)cc1C#N` gave a logP of 2.03.
The compound `CCNc1ncc(-c2ccncc2)cc1C#N` came in with a logP of 2.33.
In the case of `CN(C)c1ncc(-c2ccncc2)cc1C#N`, the logP is 2.13.
Compound `CCC(CO)Nc1ncc(-c2ccncc2)cc1C#N` (stereo not given) displayed a logP of 1.04.
The value for `COC(CNc1ncc(-c2ccncc2)cc1C#N)OC` was 2.28.
Regarding `N#Cc1cc(-c2ccncc2)cnc1NCc1ccccc1`, the log partition coefficient (logP) was determined as 3.45.
The figure for `N#Cc1cc(-c2ccncc2)cnc1NCCOCCO` is 1.62; for `N#Cc1cc(-c2ccncc2)cnc1NCCCO` it is 1.42.
`N#Cc1cc(-c2ccncc2)cnc1NCCCCO` came in with a logP of 1.93.
`N#Cc1cc(-c2ccncc2)cnc1NCCO`: the logP turned out to be 1.17.
`N#Cc1cc(-c2ccncc2)cnc1N1CCCC1` had a logP of 2.95.
Consider `C=CCNc1ncc(-c2ccncc2)cc1C#N`, for which the logP stood at 2.07.

The logP is the decadic logarithm of the partition coefficient of the neutral form, usually between octanol and water.
